Laboratory results taken from patent publication US10597388B2, “Pyridazinone herbicides” (FMC CORPORATION, priority 2014, dated 2020).

Columns and labels:
Assay in all cases: Test D controlled growth environment herbicide test, pre- and postemergence
Type in all cases: in vivo
[1] = test system: ryegrass, Italian (Italian ryegrass, Lolium multiflorum)
Method in brief: (§1)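 Pre-emergence: seeds sown in silt loam soil were sprayed with compound in a non-phytotoxic solvent mix containing surfactant. Post-emergence: plants at 2 to 18 cm (1- to 4-leaf stage) in peat moss/vermiculite medium got the same formulation. Visual 0–100 rating versus controls after 14 to 21 d.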

[2] = test system: oilseed rape (Brassica napus)
Method in brief: as §1

[3] = test system: canarygrass (Phalaris minor)
Method in brief: as §1

[4] = test system: galium (catchweed bedstraw, Galium aparine)
Method in brief: as §1

[5] = test system: radish, wild (wild radish, Raphanus raphanistrum)
Method in brief: as §1

[6] = test system: deadnettle (henbit deadnettle, Lamium amplexicaule)
Method in brief: as §1

[7] = test system: field violet (Viola arvensis)
Method in brief: as §1

[8] = test system: kochia (Kochia scoparia)
Method in brief: as §1

[9] = test system: Russian thistle (Salsola kali)
Method in brief: as §1

[10] = test system: speedwell (bird's-eye speedwell, Veronica persica)
Method in brief: as §1

[11] = test system: barley, spring (spring barley, Hordeum vulgare)
Method in brief: as §1

[12] = test system: bluegrass (annual bluegrass, Poa annua)
Method in brief: as §1

[13] = test system: buckwheat, wild (wild buckwheat, Polygonum convolvulus)
Method in brief: as §1

[14] = Postemergence, 31 g ai/ha, scale 0 to 100 (0 no effect, 100 complete control)
[15] = Postemergence, 125 g ai/ha, visual rating on scale 0 (no effect) to 100 (complete control), 14 to 21 d
[16] = Postemergence, 250 g ai/ha, scale 0 to 100 (0 no effect, 100 complete control)
[17] = Preemergence, 62 g ai/ha, scale 0 to 100 (0 no effect, 100 complete control)
[18] = Preemergence, 125 g ai/ha, scale 0 to 100 (0 no effect, 100 complete control)
[19] = Preemergence, 250 g ai/ha, scale 0 to 100, 0 no effect, 100 complete control
[20] = postemergence, 62 g ai/ha, scale 0 to 100, 0 no effect, 100 complete control

## Cn1nc(Br)c(O)c(-c2cccc3ccccc23)c1=O [Compound 20]
[1]; [14]
  Ryegrass, Italian plant response rating: 55
[1]; [15]
  Plant response rating, Ryegrass, Italian: 80
[1]; [16]
  Plant response rating, Ryegrass, Italian: 90
[1]; Preemergence, 31 g ai/ha
  Plant response rating (scale of 0 to 100), Ryegrass, Italian: 90
[1]; [17]
  Plant response rating, Ryegrass, Italian: 100
[1]; [18]
  Plant response rating, Ryegrass, Italian: 100
[1]; [19]
  Plant response rating, Ryegrass, Italian: 100
[1]; [20]
  Plant response rating, Ryegrass, Italian: 70
[2]; [14]
  Oilseed Rape plant response rating: 0
[2]; [15]
  Plant response rating, Oilseed Rape: 5
[2]; [16]
  Plant response rating, Oilseed Rape: 5
[2]; Preemergence, 31 g ai/ha
  Plant response rating (scale of 0 to 100), Oilseed Rape: 0
[2]; [17]
  Plant response rating, Oilseed Rape: 0
[2]; [18]
  Plant response rating, Oilseed Rape: 0
[2]; [19]
  Plant response rating, Oilseed Rape: 0
[2]; [20]
  Plant response rating, Oilseed Rape: 0
[3]; [14]
  Canarygrass plant response rating: 10
[3]; [15]
  Plant response rating, Canarygrass: 45
[3]; [16]
  Plant response rating, Canarygrass: 55
[3]; Preemergence, 31 g ai/ha
  Plant response rating (scale of 0 to 100), Canarygrass: 25
[3]; [17]
  Plant response rating, Canarygrass: 35
[3]; [18]
  Plant response rating, Canarygrass: 70
[3]; [19]
  Plant response rating, Canarygrass: 80
[3]; [20]
  Plant response rating, Canarygrass: 30
[4]; [14]
  Galium plant response rating: 70
[4]; [15]
  Plant response rating, Galium: 100
[4]; [16]
  Plant response rating, Galium: 100
[4]; Preemergence, 31 g ai/ha
  Plant response rating (scale of 0 to 100), Galium: 10
[4]; [17]
  Plant response rating, Galium: 30
[4]; [18]
  Plant response rating, Galium: 75
[4]; [19]
  Plant response rating, Galium: 85
[4]; [20]
  Plant response rating, Galium: 75
[5]; [14]
  Radish, Wild plant response rating: 50
[5]; [15]
  Plant response rating, Radish, Wild: 70
[5]; [16]
  Plant response rating, Radish, Wild: 65
[5]; Preemergence, 31 g ai/ha
  Plant response rating (scale of 0 to 100), Radish, Wild: 0
[5]; [17]
  Plant response rating, Radish, Wild: 0
[5]; [18]
  Plant response rating, Radish, Wild: 50
[5]; [19]
  Plant response rating, Radish, Wild: 65
[5]; [20]
  Plant response rating, Radish, Wild: 40
[6]; [14]
  Deadnettle plant response rating: 25
[6]; [15]
  Plant response rating, Deadnettle: 55
[6]; [16]
  Plant response rating, Deadnettle: 65
[6]; Preemergence, 31 g ai/ha
  Plant response rating (scale of 0 to 100), Deadnettle: 0
[6]; [17]
  Plant response rating, Deadnettle: 0
[6]; [18]
  Plant response rating, Deadnettle: 10
[6]; [19]
  Plant response rating, Deadnettle: 20
[6]; [20]
  Plant response rating, Deadnettle: 35
[7]; [14]
  Field Violet plant response rating: 5
[7]; [15]
  Plant response rating, Field Violet: 25
[7]; [16]
  Plant response rating, Field Violet: 45
[7]; Preemergence, 31 g ai/ha
  Plant response rating (scale of 0 to 100), Field Violet: 0
[7]; [17]
  Plant response rating, Field Violet: 15
[7]; [18]
  Plant response rating, Field Violet: 25
[7]; [19]
  Plant response rating, Field Violet: 75
[7]; [20]
  Plant response rating, Field Violet: 15
[8]; [14]
  Kochia plant response rating: 35
[8]; [15]
  Plant response rating, Kochia: 85
[8]; [16]
  Plant response rating, Kochia: 100
[8]; Preemergence, 31 g ai/ha
  Plant response rating (scale of 0 to 100), Kochia: 0
[8]; [17]
  Plant response rating, Kochia: 25
[8]; [18]
  Plant response rating, Kochia: 70
[8]; [19]
  Plant response rating, Kochia: 90
[8]; [20]
  Plant response rating, Kochia: 65
[9]; [14]
  Russian Thistle plant response rating: 70
[9]; [15]
  Plant response rating, Russian Thistle: 80
[9]; [16]
  Plant response rating, Russian Thistle: 98
[9]; Preemergence, 31 g ai/ha
  Plant response rating (scale of 0 to 100), Russian Thistle: 0
[9]; [17]
  Plant response rating, Russian Thistle: 30
[9]; [18]
  Plant response rating, Russian Thistle: 40
[9]; [19]
  Plant response rating, Russian Thistle: 70
[9]; [20]
  Plant response rating, Russian Thistle: 75
[10]; [14]
  Speedwell plant response rating: 5
[10]; [15]
  Plant response rating, Speedwell: 100
[10]; [16]
  Plant response rating, Speedwell: 100
[10]; Preemergence, 31 g ai/ha
  Plant response rating (scale of 0 to 100), Speedwell: 70
[10]; [17]
  Plant response rating, Speedwell: 70
[10]; [18]
  Plant response rating, Speedwell: 70
[10]; [19]
  Plant response rating, Speedwell: 90
[10]; [20]
  Plant response rating, Speedwell: 15
[11]; [14]
  Plant response rating, Barley, Spring: 0
[11]; [15]
  Plant response rating, Barley, Spring: 0
[11]; [16]
  Plant response rating, Barley, Spring: 0
[11]; Preemergence, 31 g ai/ha
  Plant response rating (scale of 0 to 100), Barley, Spring: 0
[11]; [17]
  Plant response rating, Barley, Spring: 0
[11]; [18]
  Plant response rating, Barley, Spring: 0
[11]; [19]
  Barley, Spring plant response rating: 0
[11]; [20]
  Plant response rating, Barley, Spring: 0
[12]; [14]
  Bluegrass plant response rating: 10
[12]; [15]
  Plant response rating, Bluegrass: 30
[12]; [16]
  Plant response rating, Bluegrass: 40
[12]; Preemergence, 31 g ai/ha
  Plant response rating (scale of 0 to 100), Bluegrass: 10
[12]; [17]
  Plant response rating, Bluegrass: 15
[12]; [18]
  Plant response rating, Bluegrass: 25
[12]; [19]
  Bluegrass plant response rating: 35
[12]; [20]
  Plant response rating, Bluegrass: 25
[13]; [14]
  Buckwheat, Wild plant response rating: 80
[13]; [15]
  Plant response rating, Buckwheat, Wild: 100
[13]; [16]
  Plant response rating, Buckwheat, Wild: 100
[13]; Preemergence, 31 g ai/ha
  Plant response rating (scale of 0 to 100), Buckwheat, Wild: 15
[13]; [17]
  Plant response rating, Buckwheat, Wild: 20
[13]; [18]
  Plant response rating, Buckwheat, Wild: 100
[13]; [19]
  Plant response rating, Buckwheat, Wild: 100
[13]; [20]
  Plant response rating, Buckwheat, Wild: 100

## Cc1cc(C)c2ccccc2c1-c1c(O)c(C)nn(C)c1=O [Compound 21]
[1]; [14]
  Ryegrass, Italian plant response rating: 80
[1]; [15]
  Plant response rating, Ryegrass, Italian: 85
[1]; [16]
  Plant response rating, Ryegrass, Italian: 80
[1]; [20]
  Plant response rating, Ryegrass, Italian: 80
[2]; [14]
  Oilseed Rape plant response rating: 80
[2]; [15]
  Plant response rating, Oilseed Rape: 100
[2]; [16]
  Plant response rating, Oilseed Rape: 100
[2]; [20]
  Plant response rating, Oilseed Rape: 100
[3]; [14]
  Canarygrass plant response rating: 80
[3]; [15]
  Plant response rating, Canarygrass: 85
[3]; [16]
  Plant response rating, Canarygrass: 95
[3]; [20]
  Plant response rating, Canarygrass: 80
[4]; [14]
  Galium plant response rating: 100
[4]; [15]
  Plant response rating, Galium: 100
[4]; [16]
  Plant response rating, Galium: 100
[4]; [20]
  Plant response rating, Galium: 100
[5]; [14]
  Radish, Wild plant response rating: 95
[5]; [15]
  Plant response rating, Radish, Wild: 100
[5]; [16]
  Plant response rating, Radish, Wild: 100
[5]; [20]
  Plant response rating, Radish, Wild: 100
[6]; [14]
  Deadnettle plant response rating: 90
[6]; [15]
  Plant response rating, Deadnettle: 95
[6]; [16]
  Plant response rating, Deadnettle: 100
[6]; [20]
  Plant response rating, Deadnettle: 100
[7]; [14]
  Field Violet plant response rating: 95
[7]; [15]
  Plant response rating, Field Violet: 100
[7]; [16]
  Plant response rating, Field Violet: 100
[7]; [20]
  Plant response rating, Field Violet: 95
[8]; [14]
  Kochia plant response rating: 35
[8]; [15]
  Plant response rating, Kochia: 75
[8]; [16]
  Plant response rating, Kochia: 85
[8]; [20]
  Plant response rating, Kochia: 45
[9]; [14]
  Russian Thistle plant response rating: 70
[9]; [15]
  Plant response rating, Russian Thistle: 80
[9]; [16]
  Plant response rating, Russian Thistle: 85
[9]; [20]
  Plant response rating, Russian Thistle: 75
[10]; [14]
  Speedwell plant response rating: 100
[10]; [15]
  Plant response rating, Speedwell: 100
[10]; [16]
  Plant response rating, Speedwell: 100
[10]; [20]
  Plant response rating, Speedwell: 100
[11]; [14]
  Plant response rating, Barley, Spring: 0
[11]; [15]
  Plant response rating, Barley, Spring: 10
[11]; [16]
  Plant response rating, Barley, Spring: 30
[11]; [20]
  Plant response rating, Barley, Spring: 5
[12]; [14]
  Bluegrass plant response rating: 20
[12]; [15]
  Plant response rating, Bluegrass: 35
[12]; [16]
  Plant response rating, Bluegrass: 50
[12]; [20]
  Plant response rating, Bluegrass: 30
[13]; [14]
  Buckwheat, Wild plant response rating: 100
[13]; [15]
  Plant response rating, Buckwheat, Wild: 100
[13]; [16]
  Plant response rating, Buckwheat, Wild: 100
[13]; [20]
  Plant response rating, Buckwheat, Wild: 100
